Laboratory results published in paper PMC3669624 (Molecular Cancer, 2013).
Read-outs that look alike come from different tables or passages of the source.

How the values were obtained:
5637 = test: Cell anti-proliferative effect (MTT test); format: cell-based; details: Homo sapiens, 48 h, read-out: EC50 antiproliferative effect
Procedure: (§1) UMUC-3, 5637, TCC sup cells and J82 (ATCC, Manassas, VA, USA), derived from human transitional cell carcinoma of the bladder, were routinely cultured in MEM supplemented with 10% fetal bovine serum, 2 mM glutamine, 100 U/mL penicillin, 100 μg/mL streptomycin, 1X NEAA and 1 mM sodium pyruvate. All components were purchased form Invitrogen Corportion (Cergy Pontoise, France), in a humidified incubator at 37°C with a 5% CO2 atmosphere. Caco-2 (IRCCS “S. De Bellis”, Castellana Grotte, Italy), MDCK-MDR1, MDCK-MRP1 (gift of Prof. P. Borst, NKI-AVL Institute, Amsterdam, Netherlands) and MDCK-BCRP cells (gift of Dr. A. Schinkel, NKI-AVL Institute, Amsterdam, Netherlands) were grown in DMEM medium with 10% heat-inactivated fetal calf serum, 100 U/mL penicillin, 100 μg/mL streptomycin and 2 mM L-glutamine (Invitrogen) in a humidified incubator at 37°C with a 5% CO2 atmosphere. The cells were trypsinized twice a week with trypsin/ethylenediaminetetraacetic acid (EDTA) (0.05%/0.02%) and the medium was changed twice a week.
(§2) Afterwords, 10 μl of 3-[4,5-dimethylthiazol-2-yl]-2,5-diphenyltetrazoliumbromide (MTT) freshly prepared solution (5 mg/ml in PBS) (Sigma) was added in each well, and the plate was incubated in a humidified atmosphere 5% CO2 at 37° for 3–4 h. MTT solution was removed and 200 μL of EtOH/DMSO (1:1) was added to each well to dissolve the blue formazan solid crystals. The optical density was measured at 570 nm and 650 nm wavelenghts using Victor3 (PerkinElmer, Waltham, MA, USA). The results are expressed as EC50 values, obtained from non-linear iterative curve fitting by Prism v.3.0, GraphPad software (GraphPad Software, Inc. San Diego, USA).

J82 = test: Cell anti-proliferative effect (MTT test); format: cell-based; details: Homo sapiens, read-out: EC50 antiproliferative effect
Procedure: as §1, §2

TCC sup = test: Cell anti-proliferative effect (MTT test); format: cell-based; details: Homo sapiens, 48 h, read-out: EC50 antiproliferative effect
Procedure: as §1, §2

UMUC3 = test: Cell anti-proliferative effect (MTT test); format: cell-based; details: Homo sapiens, read-out: EC50 antiproliferative effect
Procedure: as §1, §2

UMUC-3- CX = test: Cell anti-proliferative effect (MTT test); format: cell-based, human; details: for EC50: Homo sapiens, read-out: EC50 antiproliferative effect
Procedure: as §1
The pSG5-COX-2 plasmid, which contains a full-length human COX-2 cDNA in the pSG expression vector [23], was used for COX-2 transfection. The plasmid DNA was introduced into UMUC-3 cells using Lipofectamine LTX (Invitrogen). Briefly, 2.5 μg of plasmid DNA and 6.25 μl of Lipofectamine LTX were combined in 500 μl of OpTI-MEM*I reduced serum medium (Invitrogen) and allowed to stand at room temperature for 30 minutes. UMUC-3 cells were plated at 1X105 cells/well in six-well plates. After overnight attachment, the Lipofectamine mixture was applied to cells. After 5 hours of transfection, the medium was removed and complete medium was added. After 48 hours, geneticin G418 (Invitrogen) was added to cells at a concentration of […]. Cell lines were obtained from individual colonies using cloning cylinders. UMUC-3-CX overexpressing cells were obtained and were continuously cultured in complete medium with the addition of 800 μg/ml G418.
as §2

5637 si-CX = test: Cell anti-proliferative effect (MTT test); format: cell-based; details: Homo sapiens, 48 h, read-out: EC50 antiproliferative effect
Procedure: UMUC-3, 5637, TCC sup cells and J82 (ATCC, Manassas, VA, USA), derived from human transitional cell carcinoma of the bladder, were routinely cultured in MEM supplemented with 10% fetal bovine serum, 2 mM glutamine, 100 U/mL penicillin, 100 μg/mL streptomycin, 1X NEAA and 1 mM sodium pyruvate. All components were purchased form Invitrogen Corportion (Cergy Pontoise, France), in a humidified incubator at 37°C with a 5% CO2 atmosphere. Caco-2 (IRCCS “S. De Bellis”, Castellana Grotte, Italy), MDCK-MDR1, MDCK-MRP1 (gift of Prof. P. Borst, NKI-AVL Institute, Amsterdam, Netherlands) and MDCK-BCRP cells (gift of Dr. A. Schinkel, NKI-AVL Institute, Amsterdam, Netherlands) were grown in DMEM medium with 10% heat-inactivated fetal calf serum, 100 U/mL penicillin, 100 μg/mL streptomycin and 2 mM L-glutamine (Invitrogen) in a humidified incubator at 37°C with a 5% CO2 atmosphere. […]
as §2, with “MTT solution was removed and 200 μL of EtOH/DMSO (1:1) was added to each well to dissolve the blue formazan solid crystals.” left out

P-gp = P-gp (Homo sapiens, UniProt P08183); test: Drug transport experiment, Caco-2 monolayer apparent permeability; format: in vitro ADME
P-gp, sequence (P08183 whole entry): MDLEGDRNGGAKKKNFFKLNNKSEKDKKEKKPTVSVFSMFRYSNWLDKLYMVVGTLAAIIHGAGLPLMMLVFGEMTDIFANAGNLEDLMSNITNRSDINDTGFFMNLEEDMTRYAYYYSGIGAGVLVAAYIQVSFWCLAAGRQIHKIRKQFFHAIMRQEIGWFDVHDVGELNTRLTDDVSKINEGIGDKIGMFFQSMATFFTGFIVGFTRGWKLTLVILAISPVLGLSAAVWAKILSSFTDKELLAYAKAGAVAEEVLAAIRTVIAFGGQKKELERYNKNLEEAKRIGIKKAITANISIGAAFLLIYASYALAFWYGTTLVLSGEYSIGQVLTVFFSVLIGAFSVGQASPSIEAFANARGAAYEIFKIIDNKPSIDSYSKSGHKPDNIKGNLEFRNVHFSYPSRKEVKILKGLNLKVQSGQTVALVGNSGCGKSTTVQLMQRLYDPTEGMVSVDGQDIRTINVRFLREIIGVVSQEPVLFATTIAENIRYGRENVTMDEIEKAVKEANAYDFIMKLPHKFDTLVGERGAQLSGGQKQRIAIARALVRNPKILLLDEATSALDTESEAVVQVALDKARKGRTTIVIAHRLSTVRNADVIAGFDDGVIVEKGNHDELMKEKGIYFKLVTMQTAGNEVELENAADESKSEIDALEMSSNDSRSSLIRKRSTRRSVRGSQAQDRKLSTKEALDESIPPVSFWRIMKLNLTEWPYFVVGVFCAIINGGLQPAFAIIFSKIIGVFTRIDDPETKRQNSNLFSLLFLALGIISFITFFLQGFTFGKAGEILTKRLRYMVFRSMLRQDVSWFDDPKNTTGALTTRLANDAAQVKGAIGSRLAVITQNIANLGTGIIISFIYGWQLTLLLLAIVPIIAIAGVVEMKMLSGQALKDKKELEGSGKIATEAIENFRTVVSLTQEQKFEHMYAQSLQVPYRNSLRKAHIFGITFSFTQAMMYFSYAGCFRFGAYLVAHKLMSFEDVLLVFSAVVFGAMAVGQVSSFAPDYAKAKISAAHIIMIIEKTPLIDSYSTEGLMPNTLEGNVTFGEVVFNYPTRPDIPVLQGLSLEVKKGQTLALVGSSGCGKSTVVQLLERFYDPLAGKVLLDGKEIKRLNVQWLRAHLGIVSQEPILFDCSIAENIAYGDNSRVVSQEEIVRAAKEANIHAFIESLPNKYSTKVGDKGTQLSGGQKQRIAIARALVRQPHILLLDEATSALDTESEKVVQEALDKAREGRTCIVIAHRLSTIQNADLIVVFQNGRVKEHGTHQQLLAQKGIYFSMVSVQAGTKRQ

Caco-2 cells = test: Cell ATP availability assay; format: cell-based
Procedure: Caco-2 cells were seeded into 96-well microplate in 100 μL of complete medium at a density 2×10^4 cells/well. The plate was incubated O/N in a humidified atmosphere (5% CO2 at 37°C). The medium was removed and 100 μL of complete medium were added, in the presence or absence of different concentrations of test compounds. The plate was again incubated for 2 h in a humidified atmosphere. Then, 50 μl of mammalian cell lysis solution were added to all wells and the plate stirred for 5 min in an orbital shaker. In all wells, 50 μl of substrate solution were added, and the plate stirred for 5 min as above reported. The plate was dark adapted for 10 min and the luminescence measured in Victor3 (PerkinElmer) [26].

UMUC-3 cells = test: Intracellular mitomycin C accumulation (flow cytometry); format: cell-based, human; details: UMUC-3, 1 day celecoxib then 1 day MMC and celecoxib
Procedure: (§3) After incubation, the cell medium was removed and trypsin/EDTA was used to detach the cells from the plates. Cells were harvested, washed twice in ice-cold PBS (pH 7.4), and placed on ice (<1 hour) until analysis. Analysis was performed using a 530/30 filter (FL1-H [height of fluorescence intensity]). Fluorescence measurements of individual cells were done with a Becton Dickinson FACScan equipped with an […] argon laser. Analysis was gated to include single cells, based on forward and side light scatter, and was based on the acquisition of data from 10,000 cells.

UMUC-3-CX cells = test: as above; format: cell-based, human; details: 1 day celecoxib then 1 day MMC and celecoxib
Procedure: as §3

MRP1 = MRP1 (Homo sapiens, UniProt P33527); test: cell-based
MRP1, sequence (P33527 whole entry): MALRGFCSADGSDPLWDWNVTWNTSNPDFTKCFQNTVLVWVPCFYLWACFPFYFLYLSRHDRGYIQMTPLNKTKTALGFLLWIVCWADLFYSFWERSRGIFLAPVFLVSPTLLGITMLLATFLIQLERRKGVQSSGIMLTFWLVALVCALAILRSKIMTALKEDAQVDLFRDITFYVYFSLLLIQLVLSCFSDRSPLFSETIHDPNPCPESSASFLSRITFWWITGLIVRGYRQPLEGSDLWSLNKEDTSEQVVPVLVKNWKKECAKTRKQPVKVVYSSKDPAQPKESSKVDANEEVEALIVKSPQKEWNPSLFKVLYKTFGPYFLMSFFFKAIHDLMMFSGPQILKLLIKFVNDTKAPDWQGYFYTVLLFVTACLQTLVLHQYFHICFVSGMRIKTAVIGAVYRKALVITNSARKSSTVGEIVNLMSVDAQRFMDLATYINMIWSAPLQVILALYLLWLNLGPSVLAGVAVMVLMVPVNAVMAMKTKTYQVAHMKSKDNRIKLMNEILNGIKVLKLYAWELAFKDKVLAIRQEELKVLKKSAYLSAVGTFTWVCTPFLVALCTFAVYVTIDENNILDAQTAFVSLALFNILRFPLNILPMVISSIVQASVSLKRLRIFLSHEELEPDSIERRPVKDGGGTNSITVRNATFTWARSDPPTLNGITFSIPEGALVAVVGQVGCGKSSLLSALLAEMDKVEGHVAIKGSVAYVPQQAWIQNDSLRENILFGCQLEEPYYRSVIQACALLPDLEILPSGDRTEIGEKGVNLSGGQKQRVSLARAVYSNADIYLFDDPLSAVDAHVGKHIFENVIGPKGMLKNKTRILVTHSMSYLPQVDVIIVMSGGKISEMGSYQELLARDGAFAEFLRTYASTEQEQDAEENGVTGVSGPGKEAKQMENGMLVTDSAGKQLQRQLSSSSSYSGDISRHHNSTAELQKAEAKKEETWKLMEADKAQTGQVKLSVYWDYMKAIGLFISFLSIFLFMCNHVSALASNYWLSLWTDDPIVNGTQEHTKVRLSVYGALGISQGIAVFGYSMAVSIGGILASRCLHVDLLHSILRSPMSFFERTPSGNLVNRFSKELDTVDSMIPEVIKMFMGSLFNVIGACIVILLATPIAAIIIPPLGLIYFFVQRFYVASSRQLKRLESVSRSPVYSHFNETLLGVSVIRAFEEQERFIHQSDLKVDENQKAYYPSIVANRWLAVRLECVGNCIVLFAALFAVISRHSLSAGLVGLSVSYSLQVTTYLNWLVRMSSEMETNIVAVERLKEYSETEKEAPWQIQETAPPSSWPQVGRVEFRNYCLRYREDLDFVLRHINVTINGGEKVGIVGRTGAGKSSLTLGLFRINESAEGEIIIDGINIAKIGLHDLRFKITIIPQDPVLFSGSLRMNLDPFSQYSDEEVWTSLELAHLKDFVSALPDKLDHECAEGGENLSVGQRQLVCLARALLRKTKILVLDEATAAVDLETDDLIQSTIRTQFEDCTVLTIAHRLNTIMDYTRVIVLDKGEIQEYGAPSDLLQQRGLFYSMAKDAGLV
Procedure: (§4) The method was adapted from Eneroth et al. [27] and Korjamo et al. [28] with minor modifications. Briefly, each cell line was seeded into a black Cultureplate (PerkinElmer) 96/wells plate with 100 μl medium and allowed to become confluent overnight. Test compounds were solubilized in 100 μl of culture medium and added. […] In treated wells the increase of fluorescence as compared to basal level was measured. The half maximal effective concentration (EC50) values were determined by fitting the fluorescence increase percentage versus log[dose]

BCRP = target: T1, BCRP (Homo sapiens, UniProt Q9UNQ0); test: cell-based
T1 sequence (Q9UNQ0 1-655): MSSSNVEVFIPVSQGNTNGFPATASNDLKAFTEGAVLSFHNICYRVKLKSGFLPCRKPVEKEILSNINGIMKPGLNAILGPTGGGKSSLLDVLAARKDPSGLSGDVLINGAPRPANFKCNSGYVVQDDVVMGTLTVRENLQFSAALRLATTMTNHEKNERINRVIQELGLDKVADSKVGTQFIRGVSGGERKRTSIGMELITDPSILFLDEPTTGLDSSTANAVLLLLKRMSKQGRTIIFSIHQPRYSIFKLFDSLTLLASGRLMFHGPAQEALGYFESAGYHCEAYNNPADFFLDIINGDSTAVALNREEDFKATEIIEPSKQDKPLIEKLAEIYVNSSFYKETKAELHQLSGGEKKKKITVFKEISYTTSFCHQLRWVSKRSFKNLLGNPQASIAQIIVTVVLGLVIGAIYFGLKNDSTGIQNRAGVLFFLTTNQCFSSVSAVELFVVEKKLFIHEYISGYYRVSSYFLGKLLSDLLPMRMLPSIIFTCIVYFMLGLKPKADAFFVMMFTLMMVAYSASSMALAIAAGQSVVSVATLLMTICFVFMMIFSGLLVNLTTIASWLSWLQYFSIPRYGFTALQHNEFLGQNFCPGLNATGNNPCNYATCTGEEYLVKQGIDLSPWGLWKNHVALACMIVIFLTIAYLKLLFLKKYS
Procedure: as §4

CO[C@@]12[C@H](COC(N)=O)C3=C(C(=O)C(C)=C(N)C3=O)N1C[C@@H]1N[C@@H]12 [Mitomycin C]
EC50 (5637; 5637, compound alone): 0.93 ± 0.04 µM
EC50 (J82; J82, compound alone, 48 h): 0.64 ± 0.09 µM
EC50 (TCC sup; TCC sup, compound alone): 0.83 ± 0.07 µM
EC50 (UMUC3; UMUC3, compound alone, 48 h): 1.69 ± 0.09 µM
EC50 (UMUC-3- CX; UMUC3, UMUC-3-CX, compound alone, 48 h): 13 ± 1 µM
Fold improvement of MMC anti-proliferative activity by co-administration of celecoxib compared to MMC alone (UMUC-3- CX; UMUC-3-CX, celecoxib 1 μM, 5 μM and 10 μM, 48 h, listed as MMC): 2–3 fold
Anti-proliferative effect of MMC alone, fold greater in UMUC-3 than in UMUC-3-CX (UMUC-3- CX; UMUC-3 versus UMUC-3-CX, 48 h): 8 fold
EC50 (5637 si-CX; 5637 si-CX, compound alone): 0.62 ± 0.05 µM

Cc1ccc(-c2cc(C(F)(F)F)nn2-c2ccc(S(N)(=O)=O)cc2)cc1 [Celecoxib, celecoxib]
EC50 5637: > 50 µM
EC50 (J82; J82, 48 h): 11.6 ± 0.31 µM
EC50 (TCC sup; TCC-SUP): 15.7 ± 0.5 µM
EC50 (UMUC3; UMUC3, 48 h): 14.2 ± 0.7 µM
EC50 (UMUC-3- CX; UMUC3, 48 h): 16.3 ± 0.8 µM
EC50 (5637 si-CX): > 50 µM
Classification of P-gp interaction (Polli's classification) (P-gp; from drug transport, substrate transport inhibition and ATP cell depletion assays combined): P-gp unambiguous substrate
Papp A→B at 120 min, 100 µM (P-gp; human, Caco-2 monolayer, apical-basolateral flux, 120 min): 13.7 ×10⁻⁶ cm/s
Papp B→A at 120 min, 100 µM (P-gp; human, Caco-2 monolayer, basolateral-apical flux, 120 min): 103 ×10⁻⁶ cm/s
ATP cell depletion (Caco-2 cells): decreased ATP levels in a time- and dose-dependent fashion
Effect on MMC intracellular accumulation (UMUC-3 cells): not seen
Effect on MMC intracellular accumulation (UMUC-3-CX cells): increase of intracellular MMC concentration
EC50 (MRP1): 10.1 ± 0.5 µM
EC50 (BCRP): 24.1 ± 1.2 µM
